From ChEMBL document CHEMBL1156113, “Synthesis of new sugar derivatives and evaluation of their antibacterial activities against Mycobacterium tuberculosis” (Bioorg Med Chem Lett, 2009)
Converted amounts (≈) assume the structure as drawn.

Columns and labels:
Type in all cases: functional
[1] = test system: Mycobacterium tuberculosis; assay: Antimycobacterial activity against isoniazid, rifampicin-resistant Mycobacterium tuberculosis isolate A-2-3 by agar proportion method
[2] = test system: Mycobacterium tuberculosis; assay: Antimycobacterial activity against rifampicin-resistant Mycobacterium tuberculosis isolate A-2-4 by agar proportion method
[3] = test system: Mycobacterium tuberculosis; assay: Antimycobacterial activity against multidrug-resistant Mycobacterium tuberculosis isolate N-4-11 by agar proportion method
[4] = test system: Mycobacterium tuberculosis; assay: Antimycobacterial activity against multidrug-resistant Mycobacterium tuberculosis isolate P-4-11 by agar proportion method
[5] = test system: Mycobacterium tuberculosis; assay: Antimycobacterial activity against isoniazid, streptomycin-resistant Mycobacterium tuberculosis isolate A-4-25 by agar proportion method
[6] = test system: Mycobacterium tuberculosis; assay: Antimycobacterial activity against streptomycin-resistant Mycobacterium tuberculosis isolate A-4-8 by agar proportion method
[7] = test system: Mycobacterium tuberculosis; assay: Antimycobacterial activity against multidrug-resistant Mycobacterium tuberculosis isolate U-4-6 by agar proportion method
[8] = test system: Mycobacterium tuberculosis; assay: Antimycobacterial activity against multidrug-resistant Mycobacterium tuberculosis isolate Z-1-4 by agar proportion method
[9] = test system: Mycobacterium tuberculosis; assay: Antimycobacterial activity against multidrug-resistant Mycobacterium tuberculosis isolate P-1-50 by agar proportion method
[10] = test system: Mycobacterium tuberculosis; assay: Antimycobacterial activity against multidrug-resistant Mycobacterium tuberculosis isolate U-2-15 by agar proportion method
[11] = test system: Mycobacterium tuberculosis; assay: Antimycobacterial activity against multidrug-resistant Mycobacterium tuberculosis isolate A-2-6 by agar proportion method
[12] = test system: Mycobacterium tuberculosis; assay: Antimycobacterial activity against multidrug-resistant Mycobacterium tuberculosis isolate Q-4-1 by agar proportion method
[13] = test system: Mycobacterium tuberculosis; assay: Antimycobacterial activity against multidrug-resistant Mycobacterium tuberculosis isolate N-5-2 by agar proportion method
[14] = test system: Mycobacterium tuberculosis; assay: Antimycobacterial activity against isoniazid-resistant Mycobacterium tuberculosis isolate A-2-1 by agar proportion method
[15] = test system: Mycobacterium tuberculosis; assay: Antimycobacterial activity against isoniazid, rifampicin-resistant Mycobacterium tuberculosis isolate J-1-19 by agar proportion method
[16] = test system: Mycobacterium tuberculosis; assay: Antimycobacterial activity against streptomycin-resistant Mycobacterium tuberculosis isolate A-3-47 by agar proportion method
[17] = test system: Mycobacterium tuberculosis; assay: Antimycobacterial activity against multidrug-resistant Mycobacterium tuberculosis isolate R-1-38 by agar proportion method
[18] = test system: Mycobacterium tuberculosis; assay: Antimycobacterial activity against multidrug-resistant Mycobacterium tuberculosis isolate M-1-32 by agar proportion method
[19] = test system: Mycobacterium tuberculosis; assay: Antimycobacterial activity against multidrug-resistant Mycobacterium tuberculosis isolate K-3-6 by agar proportion method

CC(=O)N[C@@H]1[C@@H](O)[C@H](O)[C@@H](CO)O[C@H]1SC(=S)N(C)C
MIC [1]: 3.12 µg/mL (≈ 9.62 µM)
MIC [2]: 6.25 µg/mL (≈ 19.3 µM)
MIC [3]: 6.25 µg/mL (≈ 19.3 µM)
MIC [4]: 6.25 µg/mL (≈ 19.3 µM)
MIC [5]: 6.25 µg/mL (≈ 19.3 µM)
MIC [6]: 6.25 µg/mL (≈ 19.3 µM)
MIC [7]: 6.25 µg/mL (≈ 19.3 µM)
MIC [8]: 6.25 µg/mL (≈ 19.3 µM)
MIC [9]: 6.25 µg/mL (≈ 19.3 µM)
MIC [10]: 3.12 µg/mL (≈ 9.62 µM)
MIC [11]: 6.25 µg/mL (≈ 19.3 µM)
MIC [12]: 6.25 µg/mL (≈ 19.3 µM)
MIC [13]: 1.56 µg/mL (≈ 4.81 µM)
MIC [14]: 6.25 µg/mL (≈ 19.3 µM)
MIC [15]: 6.25 µg/mL (≈ 19.3 µM)
MIC [16]: 6.25 µg/mL (≈ 19.3 µM)
MIC [17]: 6.25 µg/mL (≈ 19.3 µM)
MIC [18]: 6.25 µg/mL (≈ 19.3 µM)
MIC [19]: 6.25 µg/mL (≈ 19.3 µM)
